The values that follow come from publication PMC7125190, “Native/citrullinated LL37-specific T-cells help autoantibody production in Systemic Lupus Erythematosus” (Scientific Reports, 2020).

For one assay, the system named is CD4 T-cells. The assay is described as follows: Peptide-MHC-tetramer staining of PBMC after seven-day culture. It is filed as cell-based, human. Particulars: for peptide-MHC-tetramer staining in HLA-matched HD: HLA-matched HD PBMCs; for peptide-MHC-tetramer staining at remission: SLE2, SLE22 and CLE6 PBMCs at remission. The method, then:
Peptide-MHC-tetramer staining of T-cell lines/clones and blood T-cells
Peptide-MHC-tetramers (Table S4) were from ProImmune, (UK), TC Metrix, (CH), Benaroya,
(USA) and ImmunAware (Denmark). Staining was performed for 40 minutes at 37°C, followed by
staining for CD4 (4°C, 20 minutes). Before flow cytometry-acquisition, cells were labelled with
PercP-conjugated 7-AAD to exclude dead cells. […]

A further assay concerns CD3+CD4+ T-cells. Kind of assay: T-cell proliferation assay (BrdU incorporation of PBMC). It is filed as cell-based, human. The note with it: for CLE patients whose CD3+CD4+ cells proliferated: CLE PBMC; for CLE patients whose CD3+CD4+ cells proliferated / SLE patients whose CD3+CD4+ cells proliferated: day 6, BrdU; for CLE patients whose CD3+CD4+ cells proliferated / PSO patients whose T-cells responded / RA patients whose T-cells proliferated / SLE patients whose CD3+CD4+ cells proliferated: positive if SI ≥3; for T-cell proliferation in HD/SSc: HD (LL37, cit-LL37) and SSc (LL37) PBMC; for PSO patients whose T-cells responded: PSO PBMC, ten of twenty-nine (LL37), 3 of 21 (cit-LL37); for PSO patients whose T-cells responded / RA patients whose T-cells proliferated: BrdU; for RA patients whose T-cells proliferated: RA PBMC, two of 15; for SLE patients whose CD3+CD4+ cells proliferated: SLE PBMC, 18 of 40 (LL37), 11 of 25 (cit-LL37); for Change of T-cell response on follow-up: eight SLE patients, up to 36 months of successful standard therapy, statistically significant for native LL37; for Proliferative response in LL37-non-responders: three SLE LL37-non-responders. How it is done: PBMCs were purified, from EDTA-treated blood, on Ficoll-Hypaque (Pharmacia Fine Chemicals, Uppsala, Sweden) were incubated (10^5 cells/well) in 96-well-flat-bottom-microplates (BD) in T cell- […]
penicillin, and 100 μg/mL streptomycin), with/without peptides. We performed assays on fresh cells, within 1-to-3 hours from collection, or on PBMCs frozen in 90% FCS-10%DMSO, whose viability we assessed by Trypan blue exclusion, at inverted microscope.
At day3 and 5, BrdU was added (1 μg/mL). BrdU-incorporation was detected by APC-labeled anti-BrdU antibody (BD Pharmingen), after surface staining by flow cytometry. Internal control for T-cell viability and proliferation was PHA treatment (2 μg/mL). SI for proliferation was calculated by dividing percent of BrdU-staining in the presence of each peptide used to stimulate cells by percent of BrdU-staining in the absence of peptide stimulation. SI for proliferation was considered positive when>3. This cut-off was obtained by calculating the mean+2DS [1.5 + 2 (0.6)] (of the stimulation indexes calculated as above) of the proliferation of HD.
Basal % of proliferation was set using, as reference, an isotype matched antibody staining (APC- […]
Assays were repeated twice with each patient. In rare cases in which background proliferation exceed antigen-specific proliferation the assay was repeated three times. Concomitant phenotype analysis of LL37-responder T-cells included staining for CD4, CD8, CXCR5, PD1, ICOS, CCR6. […]
(Uptake of a labelled nucleoside into DNA is a usual measure of proliferation.)

Assay [1] relates to SLE/CLE skin and kidney, HD skin. Kind of assay: Immunohistochemistry and laser scanner confocal microscopy of tissues. The note with it: for presence in SLE and CLE target organs: IHC and LSM, skin (dermis) and kidney; for kidney biopsies with DNA filaments bound to LL37 and/or cit-LL37: lupus nephritis, four of seven biopsies. On the set-up: species or system human. How it is done: Immunohistochemistry and laser scanner confocal microscopy (LSM)
We performed staining on […] paraffin or frozen sections of human lupus erythematosus skin specimens obtained from CHUV, Dept. of Dermatology. Staining with anti-cit-LL37 Mabs was performed using the antibodies Mab142 and Mab137 at 1:40 dilution, followed by incubation with a […] (Abcam). HRP and DAB (DAKO) were used to develop the color. Nuclear staining was performed with Mayer’s haematoxylin. […]
Frozen or paraffin-included SLE renal biopsies, obtained from Policlinico Umberto I, Rome, IT or CHUV Lausanne, CH, were stained, after saturation with blocking buffer (PBS, 0.05% tween 20, 4% BSA) for 1 hour at room temperature. Bopsies in paraffin were stained after de-paraffination in xilene (5 minutes, two times), followed by passages in: absolute ethanol (3 minutes), 95% ethanol in water (3 minutes), 80% ethanol in water (3 minutes), 70% ethanol in water (3 minutes), and antigen retrieval (5 minutes at […]
95°C in 10 mM sodium citrate, pH 6.0). Antibodies (Mab142 or Mab137) were added at 1:50 dilution (all diluited in blocking buffer) (isotype control was added at 1:100 concentration) for 1 hour at room temperature in a humidified chamber. Anti-C9 (Atlas antibodies, Sweden) was added at 1:50 dilution (all antibody dilutions were in blocking buffer). Slides were washed three times for 3 minutes under agitation with PBS 0.1% tween 20 and incubated with donkey anti-mouse or anti-rabbit secondary antibody or mouse anti-goat antibody, conjugated with AlexaFluor 647, Alexa Fluor 568 or 594 or AlexaFluor 488, depending on the combinations of markers analyzed (in humidified chamber). Slides were washed again, and mounted in Prolong Gold anti-fade media containing a DNA dye (DAPI) (Molecular Probes), before analysis with a confocal microscope, objectives 20x, or 40x and 60x in oil immersion. Images were taken by a FV1000 confocal microscope (Olympus, Tokyo, Japan), using a Olympus planapo objective 40x or 60x oil A.N. 1,42.
Excitation light was obtained by a Laser Dapi 408 nm for DAPI, an Argon Ion Laser (488 nm) for FITC (Alexa 488), a Diode Laser HeNe (561 nm) for Alexa 568, and a Red Diode Laser (638 nm) for Alexa 647. DAPI emission was recorded from 415 to 485 nm, FITC emission was recorded […]
For quantification of LL37 and cit-LL37 in renal/skin biopsies, we counted the specific staining spots in at least 3 sections from each patient, by using the ImageJ64 software. For comparison we also counted the staining in HD skin, as background staining. To estimate the percent of co-localization between IgG and LL37 staining we measured, in three sections for each patient, the total IgG or LL37 staining in single color images and than on merge images we assessed the spots that indicates the co-localization IgG/LL37.
Reactivity of mouse anti-LL37 monoclonal antibodies (Mab137 and Mab142) Biotinylated native LL37, cit-SCR LL37, SCR LL37, cit-LL37, and the other citrullinated and non-citrullinated control antigenic peptides (also biotinylated) were diluted at 2-to-5 µg/mL and added to the wells over night at 4°C. Excess unbound peptides were washed away with wash buffer (PBS

For “LLGDFFR(cit)KSKEKIGKEFKR(cit)IVQR(cit)IKDFLR(cit)NLVPR(cit)TES [cit-LL37, citrullinated LL37 (citrullinated at all five arginin positions)]”, in the assay with CD4 T-cells (seven-day culture), the “peptide-MHC-tetramer staining in HLA-matched HD” value is on record as “did not stain significantly”. Further, in the assay with CD4 T-cells, the “peptide-MHC-tetramer staining at remission” value was “still observed some staining upon stimulation with cit-LL37”. In addition, the “frequency of peptide-MHC-tetramer positive T-cells, cit-LL37 versus native-LL37” value with CD4 T-cells (three patients (SLE2, SLE22, CLE6), seven-day culture) was “higher upon culture of PBMCs with cit-LL37 compared to native-LL37”. Moreover, in the assay on CD3+CD4+ T-cells, the “CLE patients whose CD3+CD4+ cells proliferated” value is 3 of 5, the “T-cell proliferation in HD/SSc” value is on record as “no responses in HD”, the “PSO patients whose T-cells responded” value is reported as 14% and the “RA patients whose T-cells proliferated” value worked out at 13%. Also, in the assay on CD3+CD4+ T-cells, the “SLE patients whose CD3+CD4+ cells proliferated” value is on record as 44%, the “Change of T-cell response on follow-up” value was “decreased” and the “Proliferative response in LL37-non-responders” value is “no proliferation”. Moreover, the “Proliferative response at remission” value in the assay on CD3+CD4+ T-cells (SLE at remission (T1), only at the highest dose) was “still significant only in response to cit-LL37”. For the same substance, in the assay with CD3+CD4+ T-cells (SLE, low dose 1 μg/mL, 12 LL37/cit-LL37 responders), the “Proliferative response at lower antigen dose, cit-LL37 versus native” value is given as “T-cells responded better to cit-LL37 than the native counterpart at lower antigen doses”. For the same substance, in assay [1], the “presence in SLE and CLE target organs” value was “detected”; the “kidney biopsies with DNA filaments bound to LL37 and/or cit-LL37” value is given as 57%.

For the substance “LLGDFFRKSKEKIGKEFKRIVQRIKDFLRNLVPRTES [LL37, native LL37, antimicrobial peptide, 37 aa]”, in the assay with CD4 T-cells (seven-day culture), the “peptide-MHC-tetramer staining in HLA-matched HD” value is reported as “did not stain significantly”. Moreover, the “peptide-MHC-tetramer staining at remission” value in the assay on CD4 T-cells is “not staining for native-LL37”. In addition, in the assay with CD3+CD4+ T-cells, the “CLE patients whose CD3+CD4+ cells proliferated” value is on record as “three of five”, the “T-cell proliferation in HD/SSc” value is given as “No SSc or HD showed a significant response”, the “PSO patients whose T-cells responded” value came to 34% and the “RA patients whose T-cells proliferated” value is on record as 13%. Also, in the assay with CD3+CD4+ T-cells, the “SLE patients whose CD3+CD4+ cells proliferated” value is given as 45%, the “Change of T-cell response on follow-up” value is recorded as “decreased” and the “Proliferative response in LL37-non-responders” value is recorded as “no proliferation”. Besides, in assay [1], the “presence in SLE and CLE target organs” value is on record as “detected”; the “kidney biopsies with DNA filaments bound to LL37 and/or cit-LL37” value is 57%. For the same substance, the “expression in HD skin” value in assay [1] (healthy donor skin) is “did not express significant amounts”.
